Measured values taken from PubChem BioAssay (NCI).
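48-hour exposure; five concentrations; linearly interpolated endpoints. GI50 = concentration required for 50% inhibition of growth. At the TGI there is no net growth.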

Experiments:
Assay in all cases: NCI tumour cell line growth inhibition, 48 h
A498 renal = system: A498 renal
A549 NSCLC = system: A549 NSCLC
COLO 205 colon = system: COLO 205 colon
HCT-15 colon = system: HCT-15 colon
HT29 colon = system: HT29 colon
MALME-3M melanoma = system: MALME-3M melanoma
OVCAR-3 ovarian = system: OVCAR-3 ovarian
SNB-75 CNS = system: SNB-75 CNS
UACC-257 melanoma = system: UACC-257 melanoma
UO-31 renal = system: UO-31 renal

Row | SMILES | GI50 (A498 renal) [µM] | TGI (A498 renal) [µM] | GI50 (A549 NSCLC) [µM] | TGI (A549 NSCLC) [µM] | GI50 (COLO 205 colon) [µM] | TGI (COLO 205 colon) [µM] | GI50 (HCT-15 colon) [µM] | TGI (HCT-15 colon) [µM] | GI50 (HT29 colon) [µM] | TGI (HT29 colon) [µM] | GI50 (MALME-3M melanoma) [µM] | TGI (MALME-3M melanoma) [µM] | GI50 (OVCAR-3 ovarian) [µM] | TGI (OVCAR-3 ovarian) [µM] | GI50 (SNB-75 CNS) [µM] | TGI (SNB-75 CNS) [µM] | GI50 (UACC-257 melanoma) [µM] | TGI (UACC-257 melanoma) [µM] | GI50 (UO-31 renal) [µM] | TGI (UO-31 renal) [µM]
1 | Oc1ccc(Cc2ccc(O)c3ncccc23)c2cccnc12 | 0.223 | 0.706 | 0.0371 | 73.9 | > 100 | > 100 | 0.0712 | > 100 | > 100 | > 100 | 0.0497 | > 100 | 0.138 | > 100 | 0.0368 | > 100 | 0.236 | 0.709 | 0.0322 | > 100
2 | C[C@]12CCC3[C@@H](C[C@@H]4SC(Nc5ccccc5)=N[C@@]45CC(=O)CC[C@]35C)[C@@H]1CCC2=O (some centres not stated) | 28.8 | > 100 | 26.4 | > 100 | 12.3 | 37.4 | 2.53 | 9.71 | 3.9 | 17.6 | 21.2 | > 100 | 4.41 | 50.8 | 5.4 | 72.5 | 23.8 | 94.5 | 5.26 | 19.4
3 | O=C1C(Cl)C(c2cccc(O)c2)N1n1cnc2ccccc2c1=O (configuration not stated) |  |  |  | > 100 |  | > 100 |  | > 100 |  | > 100 |  | > 100 |  | > 100 |  | > 100 |  | > 100 |  | > 100
4 | CC(=O)O[C@H]1C(=O)[C@@]2(C)C(C(OC(=O)c3ccccc3)[C@]3(O)CC(OC(=O)[C@H](OC(=O)CCC(=O)O)C(NC(=O)c4ccccc4)c4ccccc4)C(C)=C1C3(C)C)C1(OC(C)=O)COC1C[C@@H]2OC(=O)CCC(=O)O (some centres not stated) | 0.0997 | 5.65 |  | > 100 | 0.865 | 18.6 |  | > 100 |  |  |  | > 100 | 1.89 | > 54.2 |  | > 26.8 |  | > 100 |  | > 100
5 | CCN1C2=NC(=O)N(C)C(=O)C2(Cl)C(C(SC)S(=O)(=O)c2ccc(C)cc2)c2ccccc21 (configuration not stated) |  | > 100 |  | > 100 |  | 99.2 |  |  |  | > 100 |  | > 100 |  | 80.2 |  | 53.7 |  | > 100 |  | 76.1
6 | O=C1CCC(Cc2ccc(Cl)cc2Cl)C(=O)N1 (configuration not stated) |  |  |  | > 100 |  | > 100 |  | > 100 |  | > 100 |  | > 100 |  | > 100 |  | > 100 |  | > 100 |  | > 100
7 | Nc1ccccc1C#C/C=C\C#Cc1ccccc1C(F)(F)F | 2.55 | 16.9 | 0.722 | 15.5 | 1.92 | > 37.2 | 1.13 | 12.5 | 3.58 | > 100 |  |  | 0.673 | 1.89 | 0.0869 | 18.8 | 0.536 | 23.7 | 4.08 | 23.4
8 | CCOc1ccc(N=Cc2cccc3cccnc23)cc1 |  | > 100 |  | > 100 |  | > 100 |  | > 100 |  | > 100 |  | > 100 |  | > 100 |  | > 100 |  | > 100 |  | 
9 | O=c1cc(C(F)(F)F)c2cc3c(cc2o1)NCCC3 |  | > 100 |  | > 100 |  | > 100 |  | > 100 |  | > 100 |  | > 100 |  | > 100 |  |  |  | > 100 |  | > 100
10 | CCOP(=O)(OCC)C(NC(c1ccccc1)c1ccccc1)c1ccccc1 (configuration not stated) |  |  | 15 | 30 |  |  | 13.7 | 27.6 | 32.2 | > 100 |  |  | 3.66 | 18.9 | 21.7 | 45.3 |  |  | 14.9 | 30.2
11 | Cc1ccc(NC(=O)CC2C(=O)Nc3ccccc3S2=O)cc1C (configuration not stated) |  | > 100 |  | > 100 |  |  |  | > 100 |  | > 100 |  | > 100 |  | > 100 |  | > 100 |  | > 100 |  | > 100
12 | CC[C@]1(O)CC2CN(CCc3c([nH]c4ccccc34)[C@@](C(=O)OC)(c3cc4c(cc3OC)N(C)[C@H]3[C@@](O)(C(=O)OC)[C@H](OC(C)=O)[C@]5(CC)C=CCN6CC[C@]43[C@@H]65)C2)C1 (some centres not stated) | 0.00547 | 0.0994 | < 0.005 | > 50 | < 0.005 | 0.00511 | 0.0588 | > 21.3 | < 0.005 | 5.18 | < 0.005 | 11.8 | < 0.005 | < 0.005 | < 0.005 | 5.05 |  |  | 0.511 | 15.9
13 | O=C1C(Cl)=C(Cl)C(=O)N1C1C2CC3CC(C2)CC1C3 (configuration not stated) |  | > 100 |  | > 100 |  | > 100 |  | > 100 |  | > 100 |  | > 100 |  |  |  | > 100 |  | > 100 |  | > 100
14 | OCCCCC#Cc1ccccc1C#Cc1ccccc1 |  |  | 21.3 | 70.4 | 12.9 | 36.3 | 11.7 | 24.2 | 13.2 | > 100 | 16.9 | 32.1 |  |  | 16 | 42.1 | 19.4 | 43.8 | 28.4 | > 100
15 | COc1cc2oc(=O)ccc2cc1C1OC(=O)C2OC21C (configuration not stated) |  |  |  | > 100 |  | > 100 |  | > 100 |  | > 100 |  | > 100 |  | > 100 |  | > 100 |  | > 100 |  | > 100
16 | Cc1cccc(-c2nc3c(C(=O)NCCN(C)C)cccc3[nH]2)c1 |  | 3.34 |  | 7.7 |  | 1.56 |  | 2.2 |  | 3.48 |  |  |  | 6.55 |  | 3.73 |  | 3.08 |  | 5.05
17 | O=C(O)C(=Cc1ccnc2ccccc12)C(=O)O |  | > 100 |  | > 100 |  | > 100 |  | > 100 |  | > 100 |  | > 100 |  | > 100 |  | > 100 |  | > 100 |  | 
18 | [Cl][Bi]([O]c1ccccn1)[O]c1ccccn1 |  |  | > 100 | > 100 | > 100 | > 100 | > 100 | > 100 |  |  | > 100 | > 100 | > 100 | > 100 | > 100 | > 100 | > 100 | > 100 | > 100 | > 100
